# According to US11141394B2, “Carbon dioxide external preparation” (priority 2017, dated 2021):
# Columns and labels:
# [1] = tested on: pain of de Quervain syndrome; test: Pain relief test (de Quervain syndrome); type: in vivo, human; settings: person one; oral, earlier treatment
# Procedure: This test was conducted by a physical therapist. subject one was a person who has been suffering from de Quervain syndrome. Oral anti-inflammatory loxoprofen sodium had shown no effect on the pain of de Quervain syndrome. They had been suffering from sharp pain in the short rollical extensor muscle and the […] of the radial aspect of the hand joint. […] Therefore, pain relief effect of a carbon dioxide external preparation of the present invention was obvious.
# [2] = tested on: pain and knee stiffness of rheumatism; test: Pain and knee stiffness of rheumatism improvement test; type: in vivo, human; settings: person two; oral, earlier treatment
# Text: Therefore, pain and knee stiffness of rheumatism improvement effect of a carbon dioxide external preparation of the present invention was obvious.
structure (smiles),measurement,setting,value
CC(C(=O)O)c1ccc(CC2CCCC2=O)cc1 (centres unmarked) [loxoprofen sodium],effect on the pain of de Quervain syndrome,[1],no effect
same,pain and knee stiffness of rheumatism,[2],had not been improved
